Laboratory results reported in patent publication US20190382396A1, “SALTS OF BICYCLO[1.1.1]PENTANE INHIBITORS OF DUAL LEUCINE ZIPPER (DLK) KINASE FOR THE TREATMENT OF DISEASE” (Board of Regents, The University of Texas System, priority 2018, published 2019).
Read-outs that look alike come from different tables or passages of the source.

Assays:
Assay type in all cases: physicochemical
[1] = Dynamic vapor sorption (DVS), hygroscopicity; conditions: for Maximum sorption / Hygroscopicity (0-40% RH) / Hygroscopicity (0-90% RH) / Change in mass, Desorption / Change in mass, Sorption / Change in mass, Hysteresis: DVS; for Maximum sorption / Hygroscopicity (0-40% RH) / Hygroscopicity (0-90% RH): 25° C.; for Hygroscopicity; form change: form change after DVS
Experimental: Dynamic vapor sorption (“DVS”) was performed at 25° C., using approx 10-15 mg of sample and N2 gas at a flow rate of 200 mL/min, dm/dt=0.01% min, minimum dm/dt stability duration of 10 min, max equilibration time of 180 min, drying at 0% RH for 120 min, scanning from 0% RH to 90% RH to 0% RH with a step size of 10% RH.
Total cycling time varied, but in all cases was about 200-250 min.

[2] = Solubility in physiologically relevant solutions (SGF, FaSSIF, FeSSIF); conditions: 25±0.5° C.; for solubility at 24 h: 25 °C, thermodynamic from solid
Experimental: Solubility of the free base 1 and the selected salts 8, 9, 10, and 11 in physiologically relevant solutions were examined. For each material, aliquots were added to 2 ml vials containing 500 uL of either SGF, FaSSIF, or FeSSIF, which were then sealed. The mixtures were kept shaking by thermomixer at 700 rpm, 25±0.5° C. for 24 h to facilitate the dissolution and then centrifuged by 96-well plates at 3000 rpm for 2 min. The filter liquors were diluted with diluents (ACN/water, 50/50) and analyzed by HPLC.

[3] = Stability (50° C., 40° C./75% RH, light; 1 week); conditions: for XRPD change? / purity: bulk, 1 week; for initial purity: initial (before storage)
Experimental: The stability of the free base 1 and the selected salts 8, 9, 10, and 11 was evaluated. For each material, aliquots were set up at each of conditions (50° C., 40° C./75% RH, light) at given time points (initial and 1 week). PXRD diffractograms of the hydrogen fumarate salt 11 is shown in FIG. 17, with trace (a) showing the initial salt, trace (b) showing the salt after light treatment, trace (c) showing the salt after storage at 40° C. and 75% relative humidity for 1 week, and (d) showing the salt after storage at 50° C. for 1 week.

[4] = simulated gastric fluid, SGF, read-out: Solubility SGF Conc
[5] = FaSSIF, read-out: Solubility FaSSIF Conc
[6] = FeSSIF, read-out: Solubility FeSSIF Conc

SMILES: CC(C)c1nc(-c2cnc(N)c(OC(F)(F)F)c2)cn1C12CC(N3CCOCC3)(C1)C2.O=C(O)/C=C\C(=O)O [Example 9, 5-(2-isopropyl-1-(3-morpholinobicyclo[1.1.1]pentan-1-yl)-1H-imidazol-4-yl)-3-(trifluoromethoxy)pyridin-2-amine hydrogen maleate]
- Maximum sorption [1]: 0.27%
- Hygroscopicity (0-40% RH) [1]: 0.07%
- Hygroscopicity (0-90% RH) [1]: 0.27%
- Change in mass, Desorption ([1]; Target % P/P0 0.0): −0.0030%
- Change in mass, Sorption ([1]; Target % P/P0 0.0): 0.0000%
- Change in mass, Desorption ([1]; Target % P/P0 10.0): 0.0196%
- Change in mass, Hysteresis ([1]; Target % P/P0 10.0): 0.0015%
- Change in mass, Sorption ([1]; Target % P/P0 10.0): 0.0181%
- Change in mass, Desorption ([1]; Target % P/P0 20.0): 0.0354%
- Change in mass, Hysteresis ([1]; Target % P/P0 20.0): 0.0038%
- Change in mass, Sorption ([1]; Target % P/P0 20.0): 0.0317%
- Change in mass, Desorption ([1]; Target % P/P0 30.0): 0.0573%
- Change in mass, Hysteresis ([1]; Target % P/P0 30.0): 0.0151%
- Change in mass, Sorption ([1]; Target % P/P0 30.0): 0.0422%
- Change in mass, Desorption ([1]; Target % P/P0 40.0): 0.0747%
- Change in mass, Hysteresis ([1]; Target % P/P0 40.0): 0.0090%
- Change in mass, Sorption ([1]; Target % P/P0 40.0): 0.0656%
- Change in mass, Desorption ([1]; Target % P/P0 50.0): 0.0950%
- Change in mass, Hysteresis ([1]; Target % P/P0 50.0): 0.0136%
- Change in mass, Sorption ([1]; Target % P/P0 50.0): 0.0814%
- Change in mass, Desorption ([1]; Target % P/P0 60.0): 0.1199%
- Change in mass, Hysteresis ([1]; Target % P/P0 60.0): 0.0158%
- Change in mass, Sorption ([1]; Target % P/P0 60.0): 0.1041%
- Change in mass, Desorption ([1]; Target % P/P0 70.0): 0.1516%
- Change in mass, Hysteresis ([1]; Target % P/P0 70.0): 0.0189%
- Change in mass, Sorption ([1]; Target % P/P0 70.0): 0.1327%
- Change in mass, Desorption ([1]; Target % P/P0 80.0): 0.1938%
- Change in mass, Hysteresis ([1]; Target % P/P0 80.0): 0.0151%
- Change in mass, Sorption ([1]; Target % P/P0 80.0): 0.1787%
- Change in mass, Desorption ([1]; Target % P/P0 90.0): 0.2655%
- Change in mass, Sorption ([1]; Target % P/P0 90.0): 0.2655%
- Hygroscopicity; form change [1]: no change
- solubility at 24 h [2, 4]: 13400 µg/mL
- solubility at 24 h [2, 5]: 113 µg/mL
- solubility at 24 h [2, 6]: 565 µg/mL
- FaSSIF pH after 24 h ([2]; FaSSIF): 5.65
- FeSSIF pH after 24 h ([2]; FeSSIF): 4.90
- SGF pH after 24 h ([2]; SGF): 3.26
- XRPD change? ([3]; 40° C., 75% RH): no
- purity ([3]; 40° C., 75% RH): 99.87%
- XRPD change? ([3]; 50° C.): no
- purity ([3]; 50° C.): 99.89%
- initial purity [3]: 99.83%
- XRPD change? ([3]; light): no
- purity ([3]; light): 99.79%

SMILES: CC(C)c1nc(-c2cnc(N)c(OC(F)(F)F)c2)cn1C12CC(N3CCOCC3)(C1)C2.O=C(O)CC(O)(CC(=O)O)C(=O)O [Example 8, 5-(2-isopropyl-1-(3-morpholinobicyclo[1.1.1]pentan-1-yl)-1H-imidazol-4-yl)-3-(trifluoromethoxy)pyridin-2-amine dihydrogen citrate]
- Maximum sorption [1]: 0.60%
- Hygroscopicity (0-40% RH) [1]: 0.17%
- Hygroscopicity (0-90% RH) [1]: 0.6%
- Change in mass, Desorption ([1]; Target % P/P0 0.0): 0.0373%
- Change in mass, Sorption ([1]; Target % P/P0 0.0): 0.0000%
- Change in mass, Desorption ([1]; Target % P/P0 10.0): 0.0913%
- Change in mass, Hysteresis ([1]; Target % P/P0 10.0): 0.0426%
- Change in mass, Sorption ([1]; Target % P/P0 10.0): 0.0487%
- Change in mass, Desorption ([1]; Target % P/P0 20.0): 0.1293%
- Change in mass, Hysteresis ([1]; Target % P/P0 20.0): 0.0411%
- Change in mass, Sorption ([1]; Target % P/P0 20.0): 0.0882%
- Change in mass, Desorption ([1]; Target % P/P0 30.0): 0.1757%
- Change in mass, Hysteresis ([1]; Target % P/P0 30.0): 0.0502%
- Change in mass, Sorption ([1]; Target % P/P0 30.0): 0.1255%
- Change in mass, Desorption ([1]; Target % P/P0 40.0): 0.2145%
- Change in mass, Hysteresis ([1]; Target % P/P0 40.0): 0.0418%
- Change in mass, Sorption ([1]; Target % P/P0 40.0): 0.1727%
- Change in mass, Desorption ([1]; Target % P/P0 50.0): 0.2609%
- Change in mass, Hysteresis ([1]; Target % P/P0 50.0): 0.0418%
- Change in mass, Sorption ([1]; Target % P/P0 50.0): 0.2191%
- Change in mass, Desorption ([1]; Target % P/P0 60.0): 0.3119%
- Change in mass, Hysteresis ([1]; Target % P/P0 60.0): 0.0388%
- Change in mass, Sorption ([1]; Target % P/P0 60.0): 0.2731%
- Change in mass, Desorption ([1]; Target % P/P0 70.0): 0.3743%
- Change in mass, Hysteresis ([1]; Target % P/P0 70.0): 0.0320%
- Change in mass, Sorption ([1]; Target % P/P0 70.0): 0.3423%
- Change in mass, Desorption ([1]; Target % P/P0 80.0): 0.4565%
- Change in mass, Hysteresis ([1]; Target % P/P0 80.0): 0.0228%
- Change in mass, Sorption ([1]; Target % P/P0 80.0): 0.4336%
- Change in mass, Desorption ([1]; Target % P/P0 90.0): 0.6040%
- Change in mass, Sorption ([1]; Target % P/P0 90.0): 0.6040%
- Hygroscopicity; form change [1]: no change
- solubility at 24 h [2, 4]: 6330 µg/mL
- solubility at 24 h [2, 5]: 113 µg/mL
- solubility at 24 h [2, 6]: 773 µg/mL
- FaSSIF pH after 24 h ([2]; FaSSIF): 5.53
- FeSSIF pH after 24 h ([2]; FeSSIF): 4.86
- SGF pH after 24 h ([2]; SGF): 3.26
- XRPD change? ([3]; 40° C., 75% RH): no
- purity ([3]; 40° C., 75% RH): 99.41%
- XRPD change? ([3]; 50° C.): no
- purity ([3]; 50° C.): 98.91%
- initial purity [3]: 99.58%
- XRPD change? ([3]; light): no
- purity ([3]; light): 99.44%

SMILES: CC(C)c1nc(-c2cnc(N)c(OC(F)(F)F)c2)cn1C12CC(N3CCOCC3)(C1)C2.O=C(O)CCC(=O)O [Example 10, 5-(2-isopropyl-1-(3-morpholinobicyclo[1.1.1]pentan-1-yl)-1H-imidazol-4-yl)-3-(trifluoromethoxy)pyridin-2-amine hydrogen succinate]
- Maximum sorption [1]: 0.30%
- Hygroscopicity (0-40% RH) [1]: 0.05%
- Hygroscopicity (0-90% RH) [1]: 0.3%
- Change in mass, Desorption ([1]; Target % P/P0 0.0): 0.0514%
- Change in mass, Sorption ([1]; Target % P/P0 0.0): 0.0000%
- Change in mass, Desorption ([1]; Target % P/P0 10.0): 0.0647%
- Change in mass, Hysteresis ([1]; Target % P/P0 10.0): 0.0496%
- Change in mass, Sorption ([1]; Target % P/P0 10.0): 0.0151%
- Change in mass, Desorption ([1]; Target % P/P0 20.0): 0.0727%
- Change in mass, Hysteresis ([1]; Target % P/P0 20.0): 0.0487%
- Change in mass, Sorption ([1]; Target % P/P0 20.0): 0.0239%
- Change in mass, Desorption ([1]; Target % P/P0 30.0): 0.0930%
- Change in mass, Hysteresis ([1]; Target % P/P0 30.0): 0.0611%
- Change in mass, Sorption ([1]; Target % P/P0 30.0): 0.0319%
- Change in mass, Desorption ([1]; Target % P/P0 40.0): 0.1081%
- Change in mass, Hysteresis ([1]; Target % P/P0 40.0): 0.0549%
- Change in mass, Sorption ([1]; Target % P/P0 40.0): 0.0532%
- Change in mass, Desorption ([1]; Target % P/P0 50.0): 0.1267%
- Change in mass, Hysteresis ([1]; Target % P/P0 50.0): 0.0541%
- Change in mass, Sorption ([1]; Target % P/P0 50.0): 0.0727%
- Change in mass, Desorption ([1]; Target % P/P0 60.0): 0.1489%
- Change in mass, Hysteresis ([1]; Target % P/P0 60.0): 0.0514%
- Change in mass, Sorption ([1]; Target % P/P0 60.0): 0.0975%
- Change in mass, Desorption ([1]; Target % P/P0 70.0): 0.1790%
- Change in mass, Hysteresis ([1]; Target % P/P0 70.0): 0.0523%
- Change in mass, Sorption ([1]; Target % P/P0 70.0): 0.1267%
- Change in mass, Desorption ([1]; Target % P/P0 80.0): 0.2233%
- Change in mass, Hysteresis ([1]; Target % P/P0 80.0): 0.0292%
- Change in mass, Sorption ([1]; Target % P/P0 80.0): 0.1941%
- Change in mass, Desorption ([1]; Target % P/P0 90.0): 0.3013%
- Change in mass, Sorption ([1]; Target % P/P0 90.0): 0.3013%
- Hygroscopicity; form change [1]: no change
- solubility at 24 h [2, 4]: 7080 µg/mL
- solubility at 24 h [2, 5]: 72.2 µg/mL
- solubility at 24 h [2, 6]: 642 µg/mL
- FaSSIF pH after 24 h ([2]; FaSSIF): 5.92
- FeSSIF pH after 24 h ([2]; FeSSIF): 4.88
- SGF pH after 24 h ([2]; SGF): 3.71
- XRPD change? ([3]; 40° C., 75% RH): no
- purity ([3]; 40° C., 75% RH): 100%
- XRPD change? ([3]; 50° C.): no
- purity ([3]; 50° C.): 100%
- initial purity [3]: 99.74%
- XRPD change? ([3]; light): no (2)
- purity ([3]; light): 99.74%
